# Source: patent EP0559700B1, “NOVEL PILOCARPINE DERIVATIVES AND PROCESS FOR THEIR PREPARATION” (Santen Oy, priority 1990, dated 1992)
# Columns and labels:
# [1] = Stability of the compounds: buffer hydrolysis (half-times, shelf-life); type: physicochemical
# Protocol: The stability of the test compounds were tested with buffer hydrolyses. The ionic strength (µ) of the buffers was 0.5, the pH-values used 4.2, 6.0, 7.4 and 9.0 and the temperatures used 37°C, 50 °C, 60 °C and 70 °C.
# The half-times T½ calculated on basis of the degradation constant k obtained for each studied compound (T½=0.693/k; k = 2.303 x kk, wherein kk is the angular coefficient of the plot which illustrates the logarithm of the remaining ester as a function of time) in a buffer solution of said pH, are indicated in the Table I below, which values refer to half-times at 37°C.
# The storage stability of the derivatives under different storage conditions may be estimated by determining the degradation constants at different temperatures and calculating the degradation constant k at the desired temperature from the equation of the plot corresponding to the Arrhenius equation (1), wherein log k is given as a function of [1/T]. Log k = Log A -(Ea)/(2.303R)x(1)/(T) [formula]
# From the degradation constant (k) obtained at the desired temperature the shelf-life-time t10% (t10% = 0.104/k) which indicates the time during which 10% of the drug has degraded may be calculated. By way of example it may be mentioned that the t10%-time of O,O'-dipropionyl (1,4-xylylene) bispilocarpate at 4 °C is almost 500 days.
# [2] = Lipophilicity: partition coefficient (octanol-buffer) and capacity factor by RP-HPLC; type: physicochemical; settings: for chromatographic logP: rp-hplc, reverse phase HPLC, 22°C, read-out: Capacity factor (22°C) k' (converted)
# Excerpt: The lipophilicity of the compounds were studied by determining the partition coefficients (P) of the compounds at a pH of 7.40. The measurements were made either in an octanol-buffer mixture by determining the concentration of the compound to be studied in the buffer phase by HPLC. The partition coefficients of the very lipophilic compounds were, however, determined by reverse phase (RP) liquid chromatography (HPLC) from the retention time (Beckmann 116 pump and 166 UV detector; Marathon autom. sample feeder). […] From the results it can be seen that the compounds of the invention are considerably more lipophilic than the pilocarpine.
# [3] = pKa-value determination by titration in a water-ethanol mixture (50%-50%); type: physicochemical; settings: water-ethanol 50:50; titration in water-ethanol mixture (50%-50%)
# [4] = Enzyme hydrolysis in plasma/buffer pH 7.4 mixture (80%-20%); type: in vitro ADME; settings: plasma/buffer pH 7.4 (80%-20%), 37°C; for half-life: 80% plasma/buffer, read-out: half-times (T½) in plasma (80%), 37°C
# Protocol: The half-times of enzyme hydrolysis of the novel bispilocarpates according to the invention and of known pilocarpic acid diesters were determined in a plasma/buffer pH 7.4-mixture (80%-20%) at 37°C. The degradation constants (k) for the compounds tested and determined from the plot showing the logarithm of remaining diester as a function of time and the half-lives T½ are shown in the Table II below. From the results it may be seen that in […] the stable test compound degrades under the influence of an enzyme (esterase) to a O,O'-dihydrogen bispilocarpate intermediate, which spontaneously degrades at pH 7.40 to pilocarpine. Consequently the effect of the bispilocarpate intermediate on the rate of formation of pilocarpine is very significant. The formation of pilocarpine was almost complete irrespective of the epimerization possibility of the intermediate. The amount of isopilocarpine formed varied from 0 to 10%, as also the pilocarpine formed epimerized, if the duration of hydrolysis was very long.
# [5] = buffer pH 6.00, ionic strength 0.5, 37°C, read-out: Half-times in buffers at 37°C, T½, pH 6.00 (converted)
# [6] = buffer pH 9.00, ionic strength 0.5, 37°C, read-out: Half-times in buffers at 37°C, T½, pH 9.00 (converted)
# [7] = pH 4.2, buffer pH 4.20, ionic strength 0.5, 37°C, read-out: Half-times in buffers at 37°C, T½, pH 4.20 (converted)
# [8] = pH 7.4, buffer pH 7.40, ionic strength 0.5, 37°C, read-out: Half-times in buffers at 37°C, T½, pH 7.40 (converted)
Structure (SMILES),"half-life [1, 5] [h]","half-life [1, 6] [h]","half-life [1, 7] [h]","half-life [1, 8] [h]",chromatographic logP [2],pKa [3],Partition coefficient log P ([2]; determined from the equation log k'= 0.182 Log P - 0.4086 (RP-HPLC retention)),half-life [4] [h],"Degradation coefficient (k) in plasma (80%), 37°C [4] [min⁻¹]"
"CC[C@H](C(=O)OCCCCCCCOC(=O)[C@@H](CC)[C@H](CO)Cc1cncn1C)[C@H](CO)Cc1cncn1C [Example 4, O,O'-Dihydrogen (1,7-heptylene) bispilocarpate]",29.9,0.3,81.8,3.35,0.0518,6.3,–,–,–
"CC[C@H](C(=O)OCCCCCCOC(=O)[C@@H](CC)[C@H](CO)Cc1cncn1C)[C@H](CO)Cc1cncn1C [Example 5, O,O'-Dihydrogen (1,6-hexylene) bispilocarpate]",25.1,0.233,62.6,2.5,-0.0494,6.3,–,–,–
"CC[C@H](C(=O)OCc1ccc(COC(=O)[C@@H](CC)[C@H](COC(=O)c2ccccc2)Cc2cncn2C)cc1)[C@H](COC(=O)c1ccccc1)Cc1cncn1C [Example 14, O,O'-Dibenzoyl (1,4-xylylene) bispilocarpate]",–,8,–,–,0.773,5.8,6.4929^2,1.57,0.00737
"CCCCCCCC(=O)OC[C@H](Cc1cncn1C)[C@H](CC)C(=O)OCc1ccccc1 [octanoyl, benzyl, reference compound]",–,–,–,–,–,–,–,0.45,0.02556
CC[C@H](C(=O)OCc1ccccc1)[C@H](CO)Cc1cncn1C [pilocarpic acid benzyl ester],–,–,–,–,-0.116,6.5,–,–,–

# The next lines start with the values.
"half-life [1, 5] [h]","half-life [1, 6] [h]","half-life [1, 7] [h]","half-life [1, 8] [h]",chromatographic logP [2],pKa [3],Partition coefficient log P ([2]; determined from the equation log k'= 0.182 Log P - 0.4086 (RP-HPLC retention)),half-life [4] [h],"Degradation coefficient (k) in plasma (80%), 37°C [4] [min⁻¹]",Structure (SMILES)
2.28,0.0317,37.6,0.3,-0.0915,6.25,–,–,–,"CC[C@H](C(=O)OCc1ccc(COC(=O)[C@@H](CC)[C@H](CO)Cc2cncn2C)cc1)[C@H](CO)Cc1cncn1C [Example 1, O,O'-Dihydrogen (1,4-xylylene) bispilocarpate]"
2.78,0.0183,48.8,0.317,-0.0814,6.3,–,–,–,"CC[C@H](C(=O)OCc1cccc(COC(=O)[C@@H](CC)[C@H](CO)Cc2cncn2C)c1)[C@H](CO)Cc1cncn1C [Example 2, O,O'-Dihydrogen (1,3-xylylene) bispilocarpate]"
3.35,0.0233,20.2,0.417,-0.0814,6.3,–,–,–,"CC[C@H](C(=O)OCc1ccccc1COC(=O)[C@@H](CC)[C@H](CO)Cc1cncn1C)[C@H](CO)Cc1cncn1C [Example 3, O,O'-Dihydrogen (1,2-xylylene) bispilocarpate]"
24.6,0.233,73,2.08,-0.123,6.3,–,–,–,"CC[C@H](C(=O)OCCCCCOC(=O)[C@@H](CC)[C@H](CO)Cc1cncn1C)[C@H](CO)Cc1cncn1C [Example 6, O,O'-Dihydrogen (1,5-pentylene) bispilocarpate]"
18.9,0.167,120,2.63,-0.182,6.35,–,–,–,"CC[C@H](C(=O)OCCCCOC(=O)[C@@H](CC)[C@H](CO)Cc1cncn1C)[C@H](CO)Cc1cncn1C [Example 7, O,O'-Dihydrogen (1,4-butylene) bispilocarpate]"
10.3,0.0667,67.3,1.2,-0.212,6.4,–,–,–,"CC[C@H](C(=O)OCCCOC(=O)[C@@H](CC)[C@H](CO)Cc1cncn1C)[C@H](CO)Cc1cncn1C [Example 8, O,O' -Dihydrogen (1,3-propylene) bispilocarpate]"
